Test results as given in publication PMC5893282 (ACS infectious diseases, 2018).

What was measured:
FlAsH-LexAPa with RecA* = FlAsH-LexAPa with RecA* (Pseudomonas aeruginosa, UniProt P37452); experiment: Pilot screen of Microsource Spectrum library with FlAsH-LexAPa; type: biochemical, P. aeruginosa; conditions: fixed concentration of 16 μM, single endpoint
[1] = test system: E. coli ΔtolC PrecA-GFP SOS reporter; experiment: Cell-based SOS reporter assay; conditions: ciprofloxacin 128 ng/mL, 2 hours, ΔtolC reporter strain

Chain of FlAsH-LexAPa with RecA* (P37452 81-204): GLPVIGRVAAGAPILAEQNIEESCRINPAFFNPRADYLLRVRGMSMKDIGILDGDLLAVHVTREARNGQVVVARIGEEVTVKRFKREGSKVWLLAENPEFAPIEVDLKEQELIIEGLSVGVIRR

## Cc1ccc(C(=O)Nc2ccc(S(=O)(=O)O)c3cc(S(=O)(=O)O)cc(S(=O)(=O)O)c23)cc1NC(=O)c1cccc(NC(=O)Nc2cccc(C(=O)Nc3cc(C(=O)Nc4ccc(S(=O)(=O)O)c5cc(S(=O)(=O)O)cc(S(=O)(=O)O)c45)ccc3C)c2)c1 [suramin]
FlAsH-LexAPa with RecA*
  Hit in pilot screen: identified in this pilot screen

## O=C(O)c1cn(C2CC2)c2cc(N3CCNCC3)c(F)cc2c1=O [ciprofloxacin]
[1]
  Increase in GFP fluorescence over the unstressed control: ~ 50 fold
